# Laboratory results as given in US20080076772A1, “Anti-Inflammatory Agents” (Pharma Mar S.A. Sociedad Unipersonal, priority 2004, published 2008).
# Tests used:
# [1] = test system: in vitro differentiated macrophages; assay: Cell viability of in vitro differentiated macrophages (PI staining, flow cytometry); type: cell-based, human
# Description: (§1) Apoptosis was detected by staining with AnnexinV and PI.
# We next studied the effect of ecteinascidin 743 on already differentiated macrophages obtained from monocytes cultured in vitro for 5 days with M-CSF. […] Monocytes were differentiated to macrophages by culture with M-CSF (20 ng/ml). At day 3, ecteinascidin 743 was added to cultures and incubated for 48 h. […] Similar results were obtained in other 4 experiments. In a series of 4 different experiments, IC50 for in vitro differentiated was 10 nM.
# We then tested the susceptibility to ecteinascidin 743 of macrophages classically activated by LPS and IFN gamma (or M1 macrophages) and alternatively activated by IL-4 (or M2 macrophages). In vitro differentiated macrophages were stimulated with LPS (100 ng/ml)+IFNgamma (500 UI:ml), Il-4 (20 ng/ml), in the presence or absence of ecteinascidin 743 for 48 h.
# [2] = test system: Tumour-Associated Macrophages (TAM); assay: Cell viability of Tumour-Associated Macrophages from ovarian cancer ascites; type: cell-based; details: Homo sapiens, Macrophage; 10 nM, 48 h, three patients
# Description: (§2) Tumour-associated macrophages (TAM) and tumour cells were isolated from the ascitic fluid of patients with diagnosed ovarian adenocarcinoma, admitted to the Clinic of Obstetrics and Gynecology of the University of Milan-Bicocca, S Gerardo Hospital. Cells contained in the ascitic fluid were centrifuged and isolated by differential density gradients of Ficoll and Percoll, and plastic adherence as previously described (see Allavena, P., Peccatori, F., Maggioni, D., Erroi, A., Sironi, M., Colombo, N., Lissoni, A., Galazka, A., Meiers, W., Mangioni, C., et al. Intraperitoneal recombinant gamma-interferon in patients with recurrent ascitic ovarian carcinoma: modulation of cytotoxicity and cytokine production in tumour-associated effectors and of major histocompatibility antigen expression on tumour cells. Cancer Res, 50: 7318-7323, 1990). Purity of TAM and tumour cell preparations was usually>65±10% as defined by morphology and phenotype analysis. Cells were treated with ecteinascidin 743 at the indicated concentrations and cultured for 1-5 days, as specified in figure legends. At the end of the incubation period cells were collected, washed and used for DNA analysis or functional assays.
# as §1
# We also tested Tumour-Associated Macrophages (TAM) isolated from the ascites of non-treated ovarian adenocarcinoma patients. […]
# [3] = test system: macrophage differentiation; assay: In vivo treatment of tumour patients, in vitro differentiation of their monocytes to macrophages; design: species or system human; % inhibition of macrophage differentiation referred to cells before infusion: concentration or dose not given beside the values; details: for Absolute numbers of marker positive macrophages/10,000 cells, Exposure to ecteinascidin 743: end of 3-h infusion, 5 days M-CSF
# Description: Expression of cell membrane markers was performed by immunofluoresce and analyzed by Flow Cytometry. Cells were incubated with anti-CD14, anti-CD16, anti-CD68, anti-CD206 (mannose receptor) and then with FITC-goat anti-mouse Ig as described. At least 10,000 cells were analyzed.
# Patients with sarcoma or ovarian cancer undergoing Phase II trial with ecteinascidin 743, were admitted to the European Oncology institute, Milano, Italy. Patients received ecteinascidin 743 ([…]) in a 3-h infusion. Blood samples (40 ml) were collected immediately before the treatment and at the end of the infusion (+3 h). Blood samples were immediately processed and Percoll purified monocytes (usually 10^6 cells) were cultured with M-CSF (20 ng/ml) for 5 days. Differentiated cells were harvested, counted and analyzed for phenotype expression, as described above. Results are presented as absolute numbers of marker-positive cells/10,000 cells.
# To validate the above in vitro findings we tested whether the in vivo administration of ecteinascidin 743 in tumour patients could have measurable effects on monocyte viability and capacity to macrophage differentiation in vitro. A phase II trial with ecteinascidin 743 is currently underway in advanced ovarian adenocarcinoma patients who had failed two different cycles of conventional cis-platin and taxol-based chemotherapy. Tumour patients selected for this study were treated with 1300 ug/ml/m2 of ecteinascidin 743. Blood samples from patients were drawn just before drug administration and at the end of a 3-hour infusion. Purified monocytes were immediately isolated and cultured with M-CSF (20 ng/ml) for 5 days to induce macrophage differentiation and then analalyzed for phenotype expression. […] The data shown are the absolute numbers of marker positive cells for a total of 10,000 input cells.
# IL-6 = assay: Constitutive IL-6 production by freshly isolated ovarian tumour cells (ELISA); type: cell-based, human; details: 16 h
# Description: as §2, with “At the end of the incubation period cells were collected, washed and used for DNA analysis or functional assays.” left out
# Monocytes, macrophages and TAM were stimulated with 100 ng/ml LPS to induce maximal cytokine production. Determination of cytokines CCL2, TNF and IL-6 was measured by specific ELISA following the manufacturer's instructions. […]
# TNF = TNF production by LPS-stimulated in vitro differentiated macrophages (ELISA); type: cell-based, human; details: LPS 100 ng/ml, 16 h incubation
# Description: Monocytes, macrophages and TAM were stimulated with 100 ng/ml LPS to induce maximal cytokine production. Determination of cytokines CCL2, TNF and IL-6 was measured by specific ELISA following the manufacturer's instructions.
# (§3) To verify whether the inhibitory effect of ecteinascidin 743 on cytokine production was at the transcriptional level, we analyzed mRNA of CCL2 and TNF from LPS-stimulated macrophages by real time-PCR of CCL2 and TNF transcripts in LPS-stimulated monocytes exposed to ecteinascidin 743.
# CCL2 transcripts = assay: Real time-PCR of CCL2 transcripts in LPS-stimulated monocytes; type: cell-based, human
# Description: as §3
compound,measurement,setting,value
COc1cc2c(cc1O)CCN[C@]21CS[C@@H]2c3c(OC(C)=O)c(C)c4c(c3[C@H](COC1=O)N1[C@@H]2[C@H]2c3c(cc(C)c(OC)c3O)C[C@@H]([C@@H]1O)N2C)OCO4 [ecteinascidin 743],IC50,"[1]; Homo sapiens, Macrophage, drug added in the last 48 h, series of 4 experiments",10 nM
same,susceptibility of LPS-stimulated and IL-4-stimulated macrophages,"[1]; LPS 100 ng/ml + IFNgamma 500 UI/ml or IL-4 20 ng/ml, 48 h",susceptible to drug treatment similarly as non-stimulated macrophages
same,mortality at 0.01 µM,[2],40 to 70%
same,subjects whose monocytes showed decreased macrophage differentiation after treatment,"[3]; of 12 evaluable patients, blood at end of 3-hour infusion",6
same,% inhibition of macrophage differentiation referred to cells before infusion,"[3]; patient UPN 1, CD16",60%
same,"Absolute numbers of marker positive macrophages/10,000 cells, Exposure to ecteinascidin 743","[3]; patient UPN 1, CD16","1248 /10,000 cells"
same,% inhibition of macrophage differentiation referred to cells before infusion,"[3]; patient UPN 1, CD68",45%
same,"Absolute numbers of marker positive macrophages/10,000 cells, Exposure to ecteinascidin 743","[3]; patient UPN 1, CD68","1473 /10,000 cells"
same,% inhibition of macrophage differentiation referred to cells before infusion,"[3]; patient UPN 1, CD206",88%
same,"Absolute numbers of marker positive macrophages/10,000 cells, Exposure to ecteinascidin 743","[3]; patient UPN 1, CD206","550 /10,000 cells"
same,% inhibition of macrophage differentiation referred to cells before infusion,"[3]; patient UPN 2, CD16",60%
same,"Absolute numbers of marker positive macrophages/10,000 cells, Exposure to ecteinascidin 743","[3]; patient UPN 2, CD16","1105 /10,000 cells"
same,% inhibition of macrophage differentiation referred to cells before infusion,"[3]; patient UPN 2, CD68",70%
same,"Absolute numbers of marker positive macrophages/10,000 cells, Exposure to ecteinascidin 743","[3]; patient UPN 2, CD68","1060 /10,000 cells"
same,% inhibition of macrophage differentiation referred to cells before infusion,"[3]; patient UPN 2, CD206",79%
same,"Absolute numbers of marker positive macrophages/10,000 cells, Exposure to ecteinascidin 743","[3]; patient UPN 2, CD206","595 /10,000 cells"
same,% inhibition of macrophage differentiation referred to cells before infusion,"[3]; patient UPN 3, CD68",80%
same,"Absolute numbers of marker positive macrophages/10,000 cells, Exposure to ecteinascidin 743","[3]; patient UPN 3, CD68","632 /10,000 cells"
same,% inhibition of macrophage differentiation referred to cells before infusion,"[3]; patient UPN 3, CD206",87%
same,"Absolute numbers of marker positive macrophages/10,000 cells, Exposure to ecteinascidin 743","[3]; patient UPN 3, CD206","474 /10,000 cells"
same,% inhibition of macrophage differentiation referred to cells before infusion,"[3]; patient UPN 4, CD16",41%
same,"Absolute numbers of marker positive macrophages/10,000 cells, Exposure to ecteinascidin 743","[3]; patient UPN 4, CD16","3050 /10,000 cells"
same,% inhibition of macrophage differentiation referred to cells before infusion,"[3]; patient UPN 4, CD68",55%
same,"Absolute numbers of marker positive macrophages/10,000 cells, Exposure to ecteinascidin 743","[3]; patient UPN 4, CD68","2460 /10,000 cells"
same,% inhibition of macrophage differentiation referred to cells before infusion,"[3]; patient UPN 5, CD16",63%
same,"Absolute numbers of marker positive macrophages/10,000 cells, Exposure to ecteinascidin 743","[3]; patient UPN 5, CD16","594 /10,000 cells"
same,% inhibition of macrophage differentiation referred to cells before infusion,"[3]; patient UPN 5, CD68",50%
same,"Absolute numbers of marker positive macrophages/10,000 cells, Exposure to ecteinascidin 743","[3]; patient UPN 5, CD68","815 /10,000 cells"
same,% inhibition of macrophage differentiation referred to cells before infusion,"[3]; patient UPN 6, CD16",83%
same,"Absolute numbers of marker positive macrophages/10,000 cells, Exposure to ecteinascidin 743","[3]; patient UPN 6, CD16","480 /10,000 cells"
same,% inhibition of macrophage differentiation referred to cells before infusion,"[3]; patient UPN 6, CD68",79%
same,"Absolute numbers of marker positive macrophages/10,000 cells, Exposure to ecteinascidin 743","[3]; patient UPN 6, CD68","505 /10,000 cells"
same,constitutive production of IL-6 by freshly isolated tumour cells,IL-6,reduced
same,production of TNF by macrophages,TNF,never inhibited
same,CCL2 transcripts,CCL2 transcripts,consistent reduction
